The text below walks through data of ChEMBL document CHEMBL4152366, “Design, synthesis, and biological evaluation of novel selective peptide inhibitors of 11β-hydroxysteroid dehydrogenase 1” (Bioorg Med Chem, 2018).

For assay [1], the target named is T1, 17-beta-hydroxysteroid dehydrogenase type 2 (Homo sapiens) (UniProt P37059).
T1 sequence (whole entry): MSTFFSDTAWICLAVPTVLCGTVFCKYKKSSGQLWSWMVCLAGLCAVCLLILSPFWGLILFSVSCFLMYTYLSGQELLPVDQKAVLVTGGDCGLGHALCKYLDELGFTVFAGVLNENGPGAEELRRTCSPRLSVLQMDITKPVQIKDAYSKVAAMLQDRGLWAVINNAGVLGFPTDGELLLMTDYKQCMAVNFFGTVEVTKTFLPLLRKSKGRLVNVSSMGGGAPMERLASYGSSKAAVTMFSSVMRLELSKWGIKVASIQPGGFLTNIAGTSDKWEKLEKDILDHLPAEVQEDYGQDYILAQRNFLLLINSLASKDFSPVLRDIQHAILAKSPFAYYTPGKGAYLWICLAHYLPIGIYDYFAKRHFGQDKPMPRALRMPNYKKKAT
Nature of the assay: Inhibition of human 17beta-HSD2 expressed in HEK293 cell lysates assessed as remaining enzyme activity at 1 uM using radiolabeled estradiol as substrate incubated for 10 mins by scintillation counting method relative to control; values are per cent of control.

In assay [2] the target is T2, 17-beta-hydroxysteroid dehydrogenase type 1 (Homo sapiens) (UniProt P14061).
T2 sequence (whole entry): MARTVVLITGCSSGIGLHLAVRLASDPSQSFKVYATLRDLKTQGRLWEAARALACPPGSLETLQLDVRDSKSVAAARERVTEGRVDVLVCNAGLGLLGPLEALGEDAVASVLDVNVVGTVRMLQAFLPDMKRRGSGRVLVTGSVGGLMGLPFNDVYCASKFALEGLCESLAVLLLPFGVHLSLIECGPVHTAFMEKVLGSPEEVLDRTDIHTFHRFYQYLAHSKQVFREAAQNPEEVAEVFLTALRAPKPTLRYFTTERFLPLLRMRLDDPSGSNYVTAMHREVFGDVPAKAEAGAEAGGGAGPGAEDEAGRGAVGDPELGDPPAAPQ
Nature of the assay: Inhibition of human 17beta-HSD1 expressed in HEK293 cell lysates assessed as remaining enzyme activity at 1 uM using radiolabeled estrone as substrate incubated for 10 mins by scintillation counting method relative to control; values are per cent of control.

In assay [3] the target is T3, 11-beta-hydroxysteroid dehydrogenase 1 (Homo sapiens, UniProt P28845). As to the kind of experiment: Inhibition of human 11beta-HSD1 expressed in HEK293 cell lysates using radiolabeled cortisone as substrate incubated for 10 mins by scintillation counting method.
Target sequence in this assay (P28845 whole entry): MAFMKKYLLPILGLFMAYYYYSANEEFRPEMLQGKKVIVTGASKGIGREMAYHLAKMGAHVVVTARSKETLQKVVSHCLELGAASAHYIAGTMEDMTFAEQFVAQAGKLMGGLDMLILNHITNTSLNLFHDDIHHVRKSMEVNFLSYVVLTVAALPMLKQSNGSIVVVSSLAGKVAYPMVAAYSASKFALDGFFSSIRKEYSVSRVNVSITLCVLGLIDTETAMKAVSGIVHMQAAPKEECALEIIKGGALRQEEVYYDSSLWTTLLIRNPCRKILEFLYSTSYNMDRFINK
Assay [4] addresses T4, 11-beta-hydroxysteroid dehydrogenase type 2 (Homo sapiens) (UniProt P80365).
T4 sequence (whole entry): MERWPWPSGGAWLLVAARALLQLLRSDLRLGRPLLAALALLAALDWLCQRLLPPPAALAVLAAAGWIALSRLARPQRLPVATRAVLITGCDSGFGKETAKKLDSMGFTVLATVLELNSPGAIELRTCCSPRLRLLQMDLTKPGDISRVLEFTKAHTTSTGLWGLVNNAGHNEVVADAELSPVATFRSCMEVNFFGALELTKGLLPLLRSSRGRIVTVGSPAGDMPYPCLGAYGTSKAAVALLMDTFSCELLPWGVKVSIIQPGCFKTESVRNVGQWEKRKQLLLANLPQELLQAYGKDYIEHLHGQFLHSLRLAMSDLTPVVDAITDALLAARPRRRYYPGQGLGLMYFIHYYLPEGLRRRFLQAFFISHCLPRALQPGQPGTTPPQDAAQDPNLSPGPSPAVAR
Nature of the assay: Inhibition of human 11beta-HSD2 expressed in HEK293 cell lysates assessed as remaining enzyme activity at 1 uM using radiolabeled cortisol as substrate incubated for 10 mins in presence of NAD+ by scintillation counting method relative to control; values are per cent of control.

Assay [5] has as its target T3, 11-beta-hydroxysteroid dehydrogenase 1. As to the kind of experiment: Inhibition of 11beta-HSD1 in human primary keratinocytes assessed as reduction in conversion of […] incubated for 48 hrs by enzyme immunoassay. Type of assay: cell-based.
Target sequence in this assay (P28845 whole entry, looked up): as the sequence (P28845 whole entry) above
The target is the same in assay [6]. Nature of the assay: Inhibition of 11beta-HSD1 in human skin assessed as reversal of cortisone-mediated decrease in dermal total collagen content at 10 to 100 uM by picrosirius red histochemical staining based assay.
Target sequence in this assay (P28845 whole entry, looked up): as the sequence (P28845 whole entry) above
For assay [7] the target is unchanged. As to the kind of experiment: Inhibition of 11beta-HSD1 in human skin assessed as reversal of cortisone-mediated decrease in dermal total collagen content by picrosirius red histochemical staining based assay.
Target sequence in this assay (P28845 whole entry, looked up): as the sequence (P28845 whole entry) above
Assay [8] shares this target. As to the kind of experiment: Inhibition of 11beta-HSD1 in human skin assessed as reversal of cortisone-mediated decrease in dermal total collagen content at 200 uM by picrosirius red histochemical staining based assay.
Target sequence in this assay (P28845 whole entry, looked up): as the sequence (P28845 whole entry) above

Some results are limits rather than exact numbers.

Regarding `CCOc1ccc(C[C@H](N)C(=O)N2CCC[C@@H]2C(=O)NC2C3CC4CC(C3)CC2C4)cc1` (stereo partly drawn), the residual activity in assay [1], in assay [2] and in assay [4] was above 90% in each case. Further, the midpoint of inhibition in assay [3], the IC50, lay at 373 nM. In addition, the inhibition entry in assay [5] was “Dose-dependent effect”.
Consider `CC(=O)N[C@@H](Cc1ccc(C#N)cc1)C(=O)N1CCC[C@@H]1C(=O)NC1C2CC3CC(C2)CC1C3` (stereo partly drawn), for which the residual activity in assay [1], in assay [2] and in assay [4] was above 90% throughout. Besides, the inhibition in assay [6] was 18%; in assay [7], “Dose-dependent effect”; in assay [5], “Dose-dependent effect”; in assay [8], 100%. This compound registered an IC50 in assay [3] of 197 nM.
In the case of `CC(=O)N[C@@H](Cc1ccc(F)cc1)C(=O)N1CCC[C@@H]1C(=O)NC1C2CC3CC(C2)CC1C3` (stereo partly drawn), the residual activity in assay [1], in assay [2] and in assay [4] was above 90% each time. The compound also showed a concentration for half-maximal inhibition (IC50) in assay [3] of 266 nM. In assay [5], the inhibition entry is “Dose-dependent effect”.
